Results as given in patent publication US20170071975A1, “COMPOSITIONS AND METHODS FOR TREATING DEPRESSIVE DISORDERS” (Steerwasher, LLC, priority 2014, published 2017).

Legend:
[1] = system: patients with treatment-resistant depression; parameters: species or system human; conditions: in vivo
Description: (§1) The gas mix was administered via a standard anesthesia facemask through tubing connected to an anesthesia machine. A small sample connector line was inserted into the facemask allowing the measurement of inhaled and exhaled gas concentrations. Total gas flow was between 4-8 L/min. Patients were monitored during and after the treatment according to American Society of Anesthesiologists standard which includes continuous 3-lead ECG, pulsoximetry, non-invasive blood pressure and end-tidal CO2 under the supervision of an attending-level anesthesiologists. After the one-hour treatment session, patients were transferred and monitored for 2 hours. A study team physician determined if the patients met criteria for discharge before patients were discharged.
(§2) Outcomes were assessed at six time points for each patient (three per session; two sessions): within each session at baseline, 2 hours, and 24 hours after treatment. Primary study endpoint was the change on the 21-point Hamilton Depression Rating Scale (HDRS). Secondary endpoints included a change on the Quick Inventory of Depressive Symptoms Self Report (QIDS-SR) scale. At baseline, the Brief Psychiatric Rating Scale (BPRS) was also administered. Psychiatric safety endpoints were assessed via standard scales for psychosis and the Columbia suicide scale. Other safety endpoints included cardiovascular, respiratory and central nervous system adverse events determined by hemodynamic and respiratory monitoring. Nitrous oxide-induced inactivation of vitamin B12 was determined by measurement of plasma total homocysteine before and after treatment.

[2] = system: patients with treatment-resistant depression; experiment: Same crossover trial; Quick Inventory of Depressive Symptoms Self Report (QIDS-SR) scale; type: in vivo, human; conditions: Table 4
Description: (§3) Primary endpoint was the change on the 21-point Hamilton Depression Rating Scale (HRDS).
(§4) This study was designed as a randomized, placebo-controlled crossover pilot clinical trial. […] The order of the session was randomly assigned by a random number generator. Other than the gas mixture administered, both sessions were indistinguishable from each other in setting, setup, and monitoring.
as §1
as §2, with “monitoring.” for “monitoring. Nitrous oxide-induced inactivation of vitamin B12 was determined by measurement of plasma total homocysteine before and after treatment.”

[3] = system: patients with treatment-resistant depression; experiment: Blinded, randomized placebo-controlled crossover trial; 21-point Hamilton Depression Rating Scale (HDRS/HRDS); type: in vivo, human
Excerpt: as §3, §4
Patients were recruited from an existing database of treatment-resistant depression patients administered by the Washington University Department of Psychiatry as well as from the “Volunteers for Health” patient pool within the Washington University School of Medicine. […] Patients were instructed not to suspend their standard of care treatment for major depression. Patients were required to maintain a stable medication regiment without changes for 4 weeks prior to initiation of the study and continue on the same dose throughout.
as §1
as §2, with “monitoring.” for “monitoring. Nitrous oxide-induced inactivation of vitamin B12 was determined by measurement of plasma total homocysteine before and after treatment.”
The primary outcome was analyzed with a mixed effects repeated measures linear model that included three interactions (treatment; time; randomization group) using restricted maximum likelihood estimation.
For the analysis of paired data, such as the levels of HRDS, we used the Wilcoxon signed-rank test. To compare the rates of treatment responses and remissions between the two treatments and using the paired data structure, an exact binomial test was used (and corresponding odds ratios calculated) as the number of discordant pairs was <20. Data are presented as mean±SD or 95% confidence intervals, or as median and interquartile range. Because this is the first in-human patient pilot study, no prior knowledge existed for adequate sample size determination. […] JMP Pro 11.1 and SAS 9.3 (SAS Institute, Cary, N.C.), as well as Prism 6.04 (GraphPad Software, Inc., La Jolla, Calif.) were used for the statistical analysis and graphing.

[4] = 24 hours after treatment, HRDS levels

Structure (SMILES): [N-]=[N+]=O [nitrous oxide]
- Adverse Event: Anxiety ([1]; human, 1 h): 2
- Adverse Event: Anxiety (percent) ([1]; human, 1 h): (10%)
- Adverse Event: Claustrophobia ([1]; human, 1 h): 1 no.
- Adverse Event: Claustrophobia (percent) ([1]; human, 1 h): (5%)
- Adverse Event: Dizziness/Lightheadedness ([1]; human, 1 h): 1 no.
- Adverse Event: Dizziness/Lightheadedness (percent) ([1]; human, 1 h): (5%)
- Adverse Event: Headache ([1]; human, 1 h): 2 no.
- Adverse Event: Headache (percent) ([1]; human, 1 h): (10%)
- Adverse Event: Hypercapnia ([1]; human, 1 h): 0
- Adverse Event: Hyperventilation ([1]; human, 1 h): 1 no.
- Adverse Event: Hyperventilation (percent) ([1]; human, 1 h): (5%)
- Adverse Event: Nausea and vomiting ([1]; human, 1 h): 3 no.
- Adverse Event: Nausea and vomiting (percent) ([1]; human, 1 h): (15%)
- Adverse Event: Numbness/Paresthesia ([1]; human, 1 h): 2
- Adverse Event: Numbness/Paresthesia (percent) ([1]; human, 1 h): (10%)
- Adverse Event: Panic Attack ([1]; human, 1 h): 1
- Adverse Event: Panic Attack (percent) ([1]; human, 1 h): (5%)
- Adverse Event: Regurgitation ([1]; human, 1 h): 1 no.
- Adverse Event: Regurgitation (percent) ([1]; human, 1 h): (5%)
- course of adverse events [1]: temporary and resolved shortly after completion
- patients in whom the treatment had to be interrupted or discontinued due to adverse events [1]: five
- patients who completed the full 60-minute treatment [1]: Fifteen
- psychotomimetic side effects (delusion, hallucination) [1]: appeared to be devoid of psychotomimetic side effects
- response on the QIDS scale: change 0 (percent) [2]: 50%
- response on the QIDS scale: change of 1 level, first arrow (P00003, presumably worse) (percent) [2]: 10%
- response on the QIDS scale: change of 1 level, second arrow (P00004, presumably better) (percent) [2]: 15%
- response on the QIDS scale: change of 2 levels, second arrow (P00004, presumably better) (percent) [2]: 25%
- Change in Level of Depression Severity: Better, 1 level (patients) [3, 4]: 7/20
- Change in Level of Depression Severity: Better, 1 level (percent) [3, 4]: (35%)
- Change in Level of Depression Severity: Better, 2 levels (patients) [3, 4]: 3/20
- Change in Level of Depression Severity: Better, 2 levels (percent) [3, 4]: (15%)
- Change in Level of Depression Severity: Better, 3 levels (patients) [3, 4]: 3/20
- Change in Level of Depression Severity: Better, 3 levels (percent) [3, 4]: (15%)
- Change in Level of Depression Severity: Better, 4 levels (patients) [3, 4]: 1/20
- Change in Level of Depression Severity: Better, 4 levels (percent) [3, 4]: (5%)
- Change in Level of Depression Severity: Neutral, 0 (patients) [3, 4]: 6/20
- Change in Level of Depression Severity: Neutral, 0 (percent) [3, 4]: (30%)
- Change in Level of Depression Severity: Worse, 1 level (patients) [3, 4]: 0
- mean change in HDRS score ([3]; 24 hours after treatment, full cohort (20 patients), 50% nitrous oxide/50% oxygen for 1 hour, compared to baseline and placebo): −5.5 points
- full remission rate (HRDS <7 points) ([3]; 24 hours, 20 patients): 15%
- treatment response rate (reduction >50% on the HRDS) ([3]; 24 hours, 20 patients): 20%
- mean reduction of HRDS ([3]; 24 hours, first treatment session only (10 patients who received nitrous oxide first)): −8.6 points
- patients with at least a 2-level improvement of depression severity on the HRDS ([3]; 24 hours, out of twenty patients, five severity levels): 7 patients
- patients with at least a 2-level improvement of depression severity on the HRDS, percent ([3]; 24 hours, twenty patients): 35%
- duration of antidepressant effects ([3]; after a single, one-hour treatment with 50% nitrous oxide): at least 24 hours
- mean reduction in depressive symptoms on HRDS ([3]; full cohort): 5.5 points
- mean reduction in depressive symptoms on HRDS ([3]; ten patients who received the nitrous oxide treatment first): 8.6 points
